In patent US20240269196A1, “RESPIRATORY TREATMENTS USING SALMONID OIL COMPOSITIONS” (Hofseth Biocare ASA, priority 2020, published 2024):
“And” between values parts separate entries of the source, which are not always exact repeats. Identical values can stand only once. Like-named read-outs stand apart in the source and are kept apart here.

Tests used:
[1] = system: guinea pig peritoneal eosinophils; experiment: Chemotactic and chemokinetic activities to leukotriene B4 of peritoneal eosinophils after i.p. pretreatment (Boyden chamber); type: in vivo, Cavia porcellus (Guinea Pig); settings: for chemokinetic (B) activity to leukotriene B4 (0.1 uM), individual animals / chemotactic (A) activity to leukotriene B4 (0.1 uM), individual animals: guinea pig peritoneal eosinophils; for inhibition of eosinophil chemotactic and chemokinetic activities: i.p. pretreatment, n=3 per dose
Experimental: The animals used in this example were from the species Cavia porcellus (Guinea Pig). A total of 21 male guinea pigs weighing between 200-250 g were selected. These animals were manually randomized into 7 groups i.e. G1 and G2 (OmeGo Salmon oil 30 and 300 mg/kg), G3 and G4 (SEACOD 30 and 300 mg/kg), G5 and G6 were positive control (Fevipiprant 5 and 20 mg/kg) and G7 was negative control (linoleic acid 300 mg/kg) wherein each group consisted of 3 animals.
Guinea pigs were sensitized to create mild eosinphilia by intraperitoneal injection of Polymyxin B (1 mg/animal) once a week for 6 weeks. Polymyxin B was given by dissolving it in 0.9% saline solution. Each animal was injected with 0.5 mL of 0.9% saline containing 1 mg of Polymyxin B. In week 6, in addition to the Polymyxin B, animals were injected with test items belonging to their specific group, as shown in Table 5 below.
Animals were treated with Polymyxin B through an intraperitoneal injection. Along with Polymyxin B even the test items were given through the intraperitoneal route. In the 6th week animals were anesthetized using isoflurane and the intraperitoneal fluid was collected by injecting 50 mL of saline in the peritoneum cavity. After massaging the abdomen for 15 seconds the fluid was drained and collected in the centrifuge tubes. Around 30-35 mL of fluid was collected from each animal. This fluid was centrifuged for 10 mins (400×g 4° C.) and was resuspended in FBS (Fetal bovine serum) medium. Following this step, the fluid was recentrifuged for 10 min (400×g 4° C.) and the cell pellet was analyzed for chemotactic and chemokinetic responses of eosinophils to leukotriene B4 and cell counts using a 96-well microchemotaxis test chamber.
Eosinophils were recovered at greater than 90% purity using a modified procedure reported by Fukusa et. al. (Increased numbers of hypodense eosinophils in the blood of patients with bronchial asthma. Am. Rev. Respir. Dis. 1985; 132:981-985).
The animals were treated with Polymyxin B saline solution once every week for continuously 5 weeks and in the 6th week along with the Polymyxin B test item was given as per the groups. Each animal received 1 mg of Polymyxin B.
The chemotactic and chemokinetic activities were measured by the Boyden chamber method using a 96-well microchamber and expressed as the number of eosinophils counted on the membrane filter under ×400 magnification (cells/five fields). The chemokinetic activity to leukotriene B4 was examined by placing the same concentration of leukotriene B4 (0.1 μM) in both compartments of the chamber. Viability of the eosinophils was determined by the Trypan blue dye exclusion test after incubation for 90 min. All samples were assayed in duplicate. Blood was also collected on the same day and plasma was separated and stored at −20° C. for follow-on anti-inflammatory biomarker assays.

[2] = type: in vivo; settings: for Mortality and Morbidity: No. of Incidence/No. of Animals: incidence of the observation 'No mortality/morbidity'
From the text: Clinical signs were observed after test item administration and all the other days throughout the study period for all the animals. The cage side observations included (but not limited to) changes in skin and fur, eyes and mucous membranes, as well as respiratory, circulatory, autonomic and central nervous system, somatomotor activity and behavior pattern.
Animals were weighed during randomization, at start of treatment and weekly thereafter, until the end of experimental period.
Raw Data were processed using Statistical Software Sigma Plot 14. The mean and Standard Deviation were calculated using the Software and all data were summarized in tabular form. All continuous data like the body weight was checked for their normality and for homogeneous data, ANOVA was used.

[3] = 20 mg (i.p.), compared to control

| SMILES | chemokinetic (B) activity to leukotriene B4 (0.1 uM), individual animals ([1]; 5 mg/kg bw i.p.) | chemotactic (A) activity to leukotriene B4 (0.1 uM), individual animals ([1]; 5 mg/kg bw i.p.) | Maximum inhibition for chemokinesis [1, 3] [%] | Maximum inhibition for chemotaxis [1, 3] [%] | chemokinetic (B) activity to leukotriene B4 (0.1 uM), individual animals ([1]; 20 mg/kg bw i.p.) | chemotactic (A) activity to leukotriene B4 (0.1 uM), individual animals ([1]; 20 mg/kg bw i.p.) | inhibition of eosinophil chemotactic and chemokinetic activities [1] | Mortality and Morbidity: Observation ([2]; 5 mg/kg bw) | Mortality and Morbidity: No. of Incidence/No. of Animals ([2]; 5 mg/kg bw) | Mortality and Morbidity: Observation ([2]; 20 mg/kg bw) | Mortality and Morbidity: No. of Incidence/No. of Animals ([2]; 20 mg/kg bw) | chemokinetic (B) activity to leukotriene B4 (0.1 uM), individual animals ([1]; 300 mg/kg bw i.p.) | chemotactic (A) activity to leukotriene B4 (0.1 uM), individual animals ([1]; 300 mg/kg bw i.p.) |
| --- | --- | --- | --- | --- | --- | --- | --- | --- | --- | --- | --- | --- | --- |
| Cc1c(CC(=O)O)c2cccnc2n1Cc1ccc(S(C)(=O)=O)cc1C(F)(F)F [Fevipiprant] | 290 Cells/5 fields (2×) and 280 Cells/5 fields | 425 Cells/5 fields and 390 Cells/5 fields and 420 Cells/5 fields | 51.7 | 68.0 | 160 Cells/5 fields and 175 Cells/5 fields and 165 Cells/5 fields | 320 Cells/5 fields and 325 Cells/5 fields and 330 Cells/5 fields | significantly inhibited | No mortality/morbidity | 03/03 | No mortality/morbidity | 03/03 | – | – |
| CCCCC/C=C\C/C=C\CCCCCCCC(=O)O [Linoleic acid] | – | – | – | – | – | – | did not inhibit | – | – | – | – | 335 Cells/5 fields and 360 Cells/5 fields and 340 Cells/5 fields | 770 Cells/5 fields and 790 Cells/5 fields and 760 Cells/5 fields |
